Assay results: patent US20200247800A1, “SUBSTITUTED BICYCLIC HETEROCYCLIC COMPOUNDS AS NADPH OXIDASE INHIBITORS” (Glenmark Pharmaceuticals S.A., priority 2017, published 2020)

Molecular target: T1, human NOX4 (Homo sapiens, UniProt Q9NPH5)
T1 construct: expressed in transfected cells; membrane fraction used
T1 sequence (Q9NPH5 1-578): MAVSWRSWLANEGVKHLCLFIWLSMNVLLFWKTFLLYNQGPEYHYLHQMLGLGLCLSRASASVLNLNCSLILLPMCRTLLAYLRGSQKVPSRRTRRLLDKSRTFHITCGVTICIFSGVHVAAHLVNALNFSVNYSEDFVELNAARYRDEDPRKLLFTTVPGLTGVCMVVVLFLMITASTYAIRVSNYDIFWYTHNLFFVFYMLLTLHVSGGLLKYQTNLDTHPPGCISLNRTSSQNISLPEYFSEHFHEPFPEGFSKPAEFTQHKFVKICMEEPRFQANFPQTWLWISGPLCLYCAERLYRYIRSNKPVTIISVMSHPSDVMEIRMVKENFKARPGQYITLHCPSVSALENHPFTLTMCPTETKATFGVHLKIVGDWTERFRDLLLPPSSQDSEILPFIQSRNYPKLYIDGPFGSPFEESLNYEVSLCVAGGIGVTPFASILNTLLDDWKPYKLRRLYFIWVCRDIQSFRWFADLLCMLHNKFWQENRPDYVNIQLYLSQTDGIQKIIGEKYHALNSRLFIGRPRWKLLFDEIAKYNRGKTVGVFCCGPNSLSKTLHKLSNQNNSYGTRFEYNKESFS
T1 sequence (P13498 1-195 partner): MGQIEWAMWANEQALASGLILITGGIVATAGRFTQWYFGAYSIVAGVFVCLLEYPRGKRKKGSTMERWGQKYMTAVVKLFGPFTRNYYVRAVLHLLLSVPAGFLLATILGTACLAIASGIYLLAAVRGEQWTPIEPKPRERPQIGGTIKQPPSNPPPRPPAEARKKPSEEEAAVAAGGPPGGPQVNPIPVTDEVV
Experiment: Cell free membrane based in vitro NOX4 assay: H2O2 production by membranes expressing human NOX4, measured with Amplex Red
Format: biochemical
Settings: for inhibition at 1 µM: read-out: Percentage inhibition at 1.0 μM; for inhibition at 10 µM: read-out: Percentage inhibition at 10.0 μM; for IC50: class symbols
Procedure, shortened: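 Membranes from HEK cells stably overexpressing human NOX4 were preincubated 20 min with inhibitor in pH 7.4 HEPES buffer containing HRP and Amplex Red, then NADPH was added. H2O2 was followed for 10 min by fluorescence (ex 544/em 590 nm). IC50 from nonlinear regression of % maximal uninhibited response.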

| Compound | inhibition at 1 µM (1.0 μM compound) | inhibition at 10 µM (10.0 μM compound) | IC50 | Percentage inhibition at 1.0 μM (1.0 μM compound, 1 µM) | Percentage inhibition at 10.0 μM (10.0 μM compound) |
| --- | --- | --- | --- | --- | --- |
| CCc1nn(CCN2CCN(CC)CC2)c2[nH]c(-c3ccccc3Cl)c(O)c(=O)c12 [Example 173, 6-(2-Chlorophenyl)-3-ethyl-1-(2-(4-ethylpiperazin-1-yl)ethyl)-5-hydroxy-1H-pyrazolo[3,4-b]pyridin-4(7H)-one] | 76.1% | 69.7% | > 150 nM | – | – |
| COc1ccc(-c2[nH]c3c(c(C)nn3C)c(=O)c2O)c(Cl)c1 [Example 18, 6-(2-Chloro-4-methoxyphenyl)-5-hydroxy-1,3-dimethyl-1,7-dihydro-4H-pyrazolo[3,4-b]pyridin-4-one] | 78.6% | 78.4% | 100 to 150 nM | – | – |
| COc1ccc(-c2[nH]c3c(c(C)nn3-c3ccc(F)c(F)c3)c(=O)c2O)c(F)c1 [Example 39, 1-(3,4-Difluorophenyl)-6-(2-fluoro-4-methoxyphenyl)-5-hydroxy-3-methyl-1,7-dihydro-4H-pyrazolo[3,4-b]pyridin-4-one] | 85% | 87.3% | 100 to 150 nM | – | – |
| CC(=O)Oc1c(-c2c(F)cccc2F)[nH]c2c(c(C)nn2C)c1=O [Example 226] | 22.9% | 66.9% | – | – | – |
| COCCOc1ccc(-c2[nH]c3c(c(C)nn3C)c(=O)c2O)c(Cl)c1 [Example 65, 6-(2-Chloro-4-(2-methoxyethoxy)phenyl)-5-hydroxy-1,3-dimethyl-1H-pyrazolo[3,4-b]pyridin-4(7H)-one] | 74.7% | 63.1% | > 150 nM | – | – |
| Cc1cc2c(=O)c(O)c(-c3ccccc3Cl)[nH]c2s1 [Example 60, 6-(2-Chlorophenyl)-5-hydroxy-2-methylthieno[2,3-b]pyridin-4(7H)-one] | 77% | 100% | > 150 nM | – | – |
| Cn1nc(C(F)(F)F)c2c(=O)c(O)c(-c3ccc(Cl)cc3)[nH]c21 [Example 43, 6-(4-Chlorophenyl)-5-hydroxy-1-methyl-3-(trifluoromethyl)-1,7-dihydro-4H-pyrazolo[3,4-b]pyridin-4-one] | 90.6% | 97.9% | 100 to 150 nM | – | – |
| CCc1nn(C)c2[nH]c(-c3ccccc3Cl)c(O)c(=O)c12 [Example 56, 6-(2-Chlorophenyl)-3-ethyl-5-hydroxy-1-methyl-1,7-dihydro-4H-pyrazolo[3,4-b]pyridin-4-one] | 82.4% | 69.8% | < 50 nM | – | – |
| Cc1nn(Cc2ccc(F)cc2)c2[nH]c(-c3c(F)cccc3F)c(O)c(=O)c12 [Example 84, 6-(2,6-Difluorophenyl)-1-(4-fluorobenzyl)-5-hydroxy-3-methyl-1H-pyrazolo[3,4-b]pyridin-4(7H)-one] | 80.2% | 88.6% | > 150 nM | – | – |
| Cn1ncc2c(=O)c(O)c(-c3cccc(Cl)c3)[nH]c21 [Example 4, 6-(3-Chlorophenyl)-5-hydroxy-1-methyl-1,7-dihydro-4H-pyrazolo[3,4-b]pyridin-4-one] | 94.5% | 98.5% | > 150 nM | – | – |
| Cc1nn(CCN2CCNCC2)c2[nH]c(-c3ccccc3Cl)c(O)c(=O)c12 [Example 177, 6-(2-Chlorophenyl)-5-hydroxy-3-methyl-1-(2-(piperazin-1-yl)ethyl)-1H-pyrazolo[3,4-b]pyridin-4(7H)-one] | 68.6% | 50.1% | > 150 nM | – | – |
| CN(C)CCn1nc(C(F)(F)F)c2c(=O)c(O)c(-c3ccccc3Cl)[nH]c21 [Example 154, 6-(2-chlorophenyl)-1-(2-(dimethylamino)ethyl)-5-hydroxy-3-(trifluoromethyl)-1H-pyrazolo[3,4-b]pyridin-4(7H)-one] | 99.6% | 100% | > 150 nM | – | – |
| COc1cc(F)c(-c2[nH]c3c(c(C)nn3C)c(=O)c2O)c(F)c1 [Example 67, 6-(2,6-Difluoro-4-methoxyphenyl)-5-hydroxy-1,3-dimethyl-1H-pyrazolo[3,4-b]pyridin-4(7H)-one] | 87.1% | 85.7% | 50 to 100 nM | – | – |
| COc1ccc(-c2[nH]c3c(c(C(F)(F)F)nn3C)c(=O)c2O)c(F)c1 [Example 47, 6-(2-Fluoro-4-methoxyphenyl)-5-hydroxy-1-methyl-3-(trifluoromethyl)-1,7-dihydro-4H-pyrazolo[3,4-b]pyridin-4-one] | 100% | 100% | 50 to 100 nM | – | – |
| Cc1nn(C)c2[nH]c(-c3ccc(Cl)cc3F)c(O)c(=O)c12 [Example 25, 6-(4-Chloro-2-fluorophenyl)-5-hydroxy-1,3-dimethyl-1,7-dihydro-4H-pyrazolo[3,4-b]pyridin-4-one] | 90.7% | 78.3% | – | – | – |
| CCCn1nc(C)c2c(=O)c(O)c(-c3c(F)cccc3F)[nH]c21 [Example 79, 6-(2,6-Difluorophenyl)-5-hydroxy-3-methyl-1-propyl-1H-pyrazolo[3,4-b]pyridin-4(7H)-one] | 78.4% | 81.6% | 100 to 150 nM | – | – |
| Cc1c2oc(-c3ccccc3Cl)c(O)c(=O)c2nn1C(C)C [Example 228, 5-(2-Chlorophenyl)-6-hydroxy-3-methyl-2-(propan-2-yl)pyrano[3,2-c]pyrazol-7(2H)-one] | 8.66% | 11% | – | – | – |

Continued, values first:

| inhibition at 1 µM (1.0 μM compound) | inhibition at 10 µM (10.0 μM compound) | IC50 | Percentage inhibition at 1.0 μM (1.0 μM compound, 1 µM) | Percentage inhibition at 10.0 μM (10.0 μM compound) | Compound |
| --- | --- | --- | --- | --- | --- |
| 100% | 93.3% | < 50 nM | – | – | Cc1nn(CCN2CCN(C)CC2)c2[nH]c(-c3ccccc3Cl)c(O)c(=O)c12 [Example 155, 6-(2-chlorophenyl)-5-hydroxy-3-methyl-1-(2-(4-methylpiperazin-1-yl)ethyl)-1H-pyrazolo[3,4-b]pyridin-4(7H)-one] |
| 67.1% | 84.4% | > 150 nM | – | – | O=c1c(O)c(-c2ccccc2Cl)[nH]c2c1c(C(F)(F)F)nn2CCN1CCOCC1 [Example 150, 6-(2-Chlorophenyl)-5-hydroxy-1-(2-morpholinoethyl)-3-(trifluoromethyl)-1H-pyrazolo[3,4-b]pyridin-4(7H)-one] |
| 87.5% | 86.1% | 100 to 150 nM | – | – | COc1ccc(-c2[nH]c3c(c(C)nn3-c3ccc(F)cc3)c(=O)c2O)c(F)c1 [Example 38, 6-(2-Fluoro-4-methoxyphenyl)-1-(4-fluorophenyl)-5-hydroxy-3-methyl-1,7-dihydro-4H-pyrazolo[3,4-b]pyridin-4-one] |
| 94.1% | 89.7% | < 50 nM | – | – | Cc1nn(C)c2[nH]c(-c3ccccc3Cl)c(O)c(=O)c12 [Example 1, 6-(2-Chlorophenyl)-5-hydroxy-1,3-dimethyl-1,7-dihydro-4H-pyrazolo[3,4-b]pyridin-4-one] |
| 73.4% | 88.3% | > 150 nM | – | – | Cn1nc(CN2CCN(C3CC3)CC2)c2c(=O)c(O)c(-c3c(F)cccc3F)[nH]c21 [Example 216, 3-((4-Cyclopropylpiperazin-1-yl)methyl)-6-(2,6-difluorophenyl)-5-hydroxy-1-methyl-1H-pyrazolo[3,4-b]pyridin-4(7H)-one] |
| 80.9% | – | > 150 nM | – | – | CCc1nn(CCN2CCN(CC)CC2)c2[nH]c(-c3c(F)cccc3F)c(O)c(=O)c12 [Example 172, 6-(2,6-Difluorophenyl)-3-ethyl-1-(2-(4-ethylpiperazin-1-yl)ethyl)-5-hydroxy-1H-pyrazolo[3,4-b]pyridin-4(7H)-one] |
| 66.9% | – | > 150 nM | – | – | CCn1nc(C)c2c(=O)c(O)c(-c3ccc(N)cc3F)[nH]c21 [Example 119, 6-(4-Amino-2-fluorophenyl)-1-ethyl-5-hydroxy-3-methyl-1,7-dihydro-4H-pyrazolo[3,4-b]pyridin-4-one] |
| – | – | > 150 nM | 87.57% | 100.00% | Cn1nc(CN2CCN(CC(F)(F)F)CC2)c2c(=O)c(O)c(-c3c(F)cccc3F)[nH]c21 [Example 220, 6-(2,6-Difluorophenyl)-5-hydroxy-1-methyl-3-((4-(2,2,2-trifluoroethyl)piperazin-1-yl)methyl)-1H-pyrazolo[3,4-b]pyridin-4(7H)-one] |
| 100% | 100% | 50 to 100 nM | – | – | COCCn1nc(C)c2c(=O)c(O)c(-c3c(F)cccc3F)[nH]c21 [Example 90, 6-(2,6-Difluorophenyl)-5-hydroxy-1-(2-methoxyethyl)-3-methyl-1H-pyrazolo[3,4-b]pyridin-4(7H)-one] |
| 86.2% | 91.5% | 50 to 100 nM | – | – | COCc1nn(C)c2[nH]c(-c3c(F)cccc3F)c(O)c(=O)c12 [Example 102, 6-(2,6-Difluorophenyl)-5-hydroxy-3-(methoxymethyl)-1-methyl-1H-pyrazolo[3,4-b]pyridin-4(7H)-one] |
